We go through 3 compounds from patent US9845284B1, “Method of obtaining complex acidic salts of divalent metals and dicarboxylic acids” (priority 2016, dated 2017).

SMILES strings stand for the structures.

This series is described as follows: Incorporation of 13C-labeled dicarboxylic acid anions in metabolic processes, determined by exhalation of 13CO2 in rats. Conditions: aqueous solution by pipette, amount equivalent to 1 mg of acid anion, air collected 12 hours after administration, 13C-labeled compounds. On the procedure: The signal incorporation in metabolism was determined by exhalation of the labeled ^13C atom in the form of ^13CO2. The experiment was conducted as follows: aqueous solutions, in the amounts equivalent to 1 mg of the acids anions they contained, were administered to rats (groups of 8 individuals, each rat weighing 225-250 g) with a pipette: amber acid, sodium fumarate (fumaric acid is almost insoluble in water), aspartic acids, Ca(SucH)2, Mg(SucH)2.4H2O, Mg(AspH)2.4H2O, Zn(FumH)2.0.5H2O, Zn(FumH)2.H2O. The animals were then quickly placed in a hermetically sealed chamber. The air from the chamber was sampled in the same amount as it was pumped in the chamber. […] After that, the mass % of 13C administer was calculated in the exhaled air.
As to `N[C@@H](CC(=O)[O-])C(=O)O.N[C@@H](CC(=O)[O-])C(=O)O.O.O.O.O.[Mg+2]` [Mg(AspH)2.4H2O, Acidic Magnesium Aspartate], the “mass % of 13C administered found in the exhaled air (as 13CO2)” value (“mass % of 13C administered found” below) turned out to be 47.4%.

Turning to `O.O.O.O.O=C([O-])CCC(=O)O.O=C([O-])CCC(=O)O.[Mg+2]` [Mg(SucH)2.4H2O, Acidic Magnesium Succinate], the “mass % of 13C administered found” value was determined as 47.7%.

For the compound `O=C([O-])/C=C/C(=O)[O-].[Na+].[Na+]` [sodium fumarate, reference compound], the “mass % of 13C administered found” value was found to be 97.8%.
